Assay [1] concerns the target T1, Bst DNA polymerase (Geobacillus stearothermophilus, UniProt P52026).
T1 sequence (P52026 289-876 limits assumed): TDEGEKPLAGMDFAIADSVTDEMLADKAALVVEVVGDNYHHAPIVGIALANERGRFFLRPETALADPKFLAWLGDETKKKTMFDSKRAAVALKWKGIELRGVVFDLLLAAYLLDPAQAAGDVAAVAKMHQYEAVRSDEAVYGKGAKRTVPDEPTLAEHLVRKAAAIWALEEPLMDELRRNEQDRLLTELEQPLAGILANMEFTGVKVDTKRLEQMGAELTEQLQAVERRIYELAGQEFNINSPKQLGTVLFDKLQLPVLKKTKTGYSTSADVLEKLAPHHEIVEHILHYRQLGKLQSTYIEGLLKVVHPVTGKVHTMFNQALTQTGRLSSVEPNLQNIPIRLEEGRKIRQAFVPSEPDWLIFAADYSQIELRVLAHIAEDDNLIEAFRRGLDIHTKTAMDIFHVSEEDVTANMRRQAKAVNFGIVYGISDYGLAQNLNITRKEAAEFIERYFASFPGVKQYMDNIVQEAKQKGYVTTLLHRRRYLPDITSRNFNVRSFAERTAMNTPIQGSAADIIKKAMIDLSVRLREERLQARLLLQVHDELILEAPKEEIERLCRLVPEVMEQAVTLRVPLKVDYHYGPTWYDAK
Description: PEP. The class given is biochemical, Bacillus stearothermophilus.

Assay [2] has as its target T2, DeepVent(exo−) DNA polymerase (Pyrococcus sp. GB-D, UniProt Q51334, D141A/E143A).
T2 sequence (Q51334 with tags, fused parts or gaps D141A/E143A): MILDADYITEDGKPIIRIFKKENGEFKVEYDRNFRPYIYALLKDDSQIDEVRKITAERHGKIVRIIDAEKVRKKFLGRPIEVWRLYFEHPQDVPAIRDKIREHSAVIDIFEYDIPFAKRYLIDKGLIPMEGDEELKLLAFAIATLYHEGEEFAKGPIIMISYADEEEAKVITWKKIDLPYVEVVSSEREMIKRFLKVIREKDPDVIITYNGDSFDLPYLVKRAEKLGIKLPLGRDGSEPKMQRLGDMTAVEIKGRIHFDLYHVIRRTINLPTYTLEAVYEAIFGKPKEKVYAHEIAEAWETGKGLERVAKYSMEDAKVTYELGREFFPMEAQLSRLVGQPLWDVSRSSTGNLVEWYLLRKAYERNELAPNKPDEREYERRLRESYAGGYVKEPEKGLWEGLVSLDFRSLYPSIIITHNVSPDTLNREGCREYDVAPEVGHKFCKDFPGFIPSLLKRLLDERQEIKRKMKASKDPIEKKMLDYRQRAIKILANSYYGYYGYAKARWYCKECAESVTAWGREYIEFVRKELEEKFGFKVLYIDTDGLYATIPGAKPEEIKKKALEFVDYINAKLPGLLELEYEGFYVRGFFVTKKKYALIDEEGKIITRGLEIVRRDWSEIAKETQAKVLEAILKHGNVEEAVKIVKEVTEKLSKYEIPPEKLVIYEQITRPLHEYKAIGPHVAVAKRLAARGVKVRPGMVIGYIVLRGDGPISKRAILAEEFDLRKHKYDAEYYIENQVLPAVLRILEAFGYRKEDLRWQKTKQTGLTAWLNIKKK
Description: PEP. Type of assay: biochemical, Pyrococcus species GB-D.

The target of assay [3] is T1, Bst DNA polymerase. Description: PEP mismatch. Type of assay: biochemical, Bacillus stearothermophilus.
Assay [4] concerns the target Klenow(exo−) DNA polymerase (Escherichia coli, UniProt P00582, D355A/E357A). The experiment in a line: PEP. The class given is biochemical.
Assay [5] has as its target AmpliTaqFS DNA polymerase (Thermus aquaticus, UniProt P19821, F667Y/G46D). The experiment in a line: PEP. Type of assay: biochemical, Thermus aquaticus YT-1.
Assay [6] addresses T3, Therminator II DNA polymerase (Thermococcus sp., UniProt Q56366, A485L/D141A/E143A/Y409V).
T3 sequence (Q56366 1-775 D141A/E143A/Y409V/A485L): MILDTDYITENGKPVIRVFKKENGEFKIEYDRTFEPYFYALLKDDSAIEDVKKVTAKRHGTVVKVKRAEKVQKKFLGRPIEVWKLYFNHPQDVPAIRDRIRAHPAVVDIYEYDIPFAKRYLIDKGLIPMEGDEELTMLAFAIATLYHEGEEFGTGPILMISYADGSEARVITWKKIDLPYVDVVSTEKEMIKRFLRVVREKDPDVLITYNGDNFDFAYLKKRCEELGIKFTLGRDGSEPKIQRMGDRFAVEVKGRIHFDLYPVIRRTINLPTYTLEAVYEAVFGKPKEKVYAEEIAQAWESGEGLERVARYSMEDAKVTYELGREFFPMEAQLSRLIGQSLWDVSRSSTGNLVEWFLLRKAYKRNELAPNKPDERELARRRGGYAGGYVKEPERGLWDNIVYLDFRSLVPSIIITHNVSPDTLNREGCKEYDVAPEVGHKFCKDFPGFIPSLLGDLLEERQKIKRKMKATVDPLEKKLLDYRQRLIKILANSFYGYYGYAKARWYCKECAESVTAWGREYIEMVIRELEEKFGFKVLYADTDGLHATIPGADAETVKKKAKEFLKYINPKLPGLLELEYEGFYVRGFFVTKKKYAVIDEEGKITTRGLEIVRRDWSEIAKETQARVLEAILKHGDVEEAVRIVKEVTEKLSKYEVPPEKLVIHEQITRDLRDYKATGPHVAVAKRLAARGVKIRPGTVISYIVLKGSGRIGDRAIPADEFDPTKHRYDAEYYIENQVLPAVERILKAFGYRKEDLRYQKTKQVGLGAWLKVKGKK
Description: PEP. The class given is biochemical, Thermococcus species 9ºN-7.

For a further assay, the target named is Taq DNA polymerase (Thermus aquaticus, UniProt P19821). Description: PEP. The class given is biochemical, Thermus aquaticus YT-1.
[7] abbreviates: Klenow(exo−), ratio of IC50 values.
Where [8] appears, read: AmpliTaqFS, ratio of IC50 values.
The mark [9] stands for this setting: Therminator II, ratio of IC50 values.

This note sets out measurements from paper PMC2095803 (Nucleic Acids Research, 2007).

Sequence of AmpliTaqFS DNA polymerase (P19821 whole entry G46D/F667Y): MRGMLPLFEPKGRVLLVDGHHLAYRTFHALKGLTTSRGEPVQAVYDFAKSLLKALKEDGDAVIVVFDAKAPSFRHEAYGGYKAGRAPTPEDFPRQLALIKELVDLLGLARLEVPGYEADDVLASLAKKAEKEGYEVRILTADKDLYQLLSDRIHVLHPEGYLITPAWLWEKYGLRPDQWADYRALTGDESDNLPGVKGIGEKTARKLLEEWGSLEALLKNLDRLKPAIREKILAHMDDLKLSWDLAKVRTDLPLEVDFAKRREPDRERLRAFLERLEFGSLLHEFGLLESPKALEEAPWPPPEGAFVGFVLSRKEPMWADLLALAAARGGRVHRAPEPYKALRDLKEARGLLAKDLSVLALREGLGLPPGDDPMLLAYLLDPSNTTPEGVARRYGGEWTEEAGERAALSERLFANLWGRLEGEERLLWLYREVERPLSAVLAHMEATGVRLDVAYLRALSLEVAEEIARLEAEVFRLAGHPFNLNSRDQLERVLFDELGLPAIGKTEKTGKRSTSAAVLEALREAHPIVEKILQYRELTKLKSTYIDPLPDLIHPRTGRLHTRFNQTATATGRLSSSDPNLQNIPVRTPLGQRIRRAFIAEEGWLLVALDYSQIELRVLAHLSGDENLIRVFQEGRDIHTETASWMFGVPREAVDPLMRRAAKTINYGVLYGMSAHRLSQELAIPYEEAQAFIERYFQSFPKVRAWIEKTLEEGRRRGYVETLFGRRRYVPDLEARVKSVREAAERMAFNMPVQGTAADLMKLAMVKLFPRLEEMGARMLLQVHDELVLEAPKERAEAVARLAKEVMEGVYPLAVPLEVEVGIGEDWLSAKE
Sequence of Taq DNA polymerase (P19821 whole entry): as the sequence (P19821 whole entry G46D/F667Y) above, with D46G, Y667F counted along it

As usually defined, the IC50 is the concentration at which inhibition is half-maximal. Lower therefore signals inhibition by little substance. As for `Nc1ncnc2c1ncn2[C@H]1CC[C@@H](COP(=O)(O)OP(=O)(O)OP(=O)(O)O)O1` [ddATP, 2′,3′-dideoxyadenosine triphosphate, reference compound], the half-maximal inhibitory concentration (IC50) against Bst DNA polymerase [1] was determined as 370 ± 30 nM; in assay [2], 3400 ± 400 nM; in assay [4], 29 ± 5 nM; in assay [5], 3.3 ± 0.1 nM; in assay [6] it was 230 ± 30 nM; at Taq DNA polymerase, 12600 ± 900 nM. Besides, the “Incorporation bias ddATP/dATP” value on Bst DNA polymerase [1] (Bst, ratio of IC50 values) is on record as 310; in assay [4] (setting [7]), 18; in assay [5] (setting [8]), 0.62; in assay [6] (setting [9]), 52; at Taq DNA polymerase (Taq, ratio of IC50 values), 2300. The Mismatch incorporation result at Bst DNA polymerase [3] (final concentration of 500 μM (data not shown)) is “did not show mismatch incorporation”.
Take `O=[N+]([O-])c1ccccc1CNc1ncnc2c1ncn2[C@H]1C[C@H](O)[C@@H](COP(=O)(O)OP(=O)(O)OP(=O)(O)O)O1` [Compound IIIc, N^6-(2-Nitrobenzyl)-2’-deoxyadenosine-5’-triphosphate]: the “Incorporation bias Cpd IIIc/dATP” value is 18 on Bst DNA polymerase [1] (Bst, ratio of IC50 values); 2.7 in assay [4] (setting [7]); 170 in assay [5] (setting [8]); 1.8 in assay [6] (setting [9]); 380 at Taq DNA polymerase (Taq, ratio of IC50 values). Further, the “Incorporation bias Cpd IIIc/ddATP” value on Bst DNA polymerase [1] (Bst, ratio of IC50 values) was determined as 0.057; in assay [4] (setting [7]), 0.15; in assay [5] (setting [8]), 270; in assay [6] (setting [9]) it was 0.034; on Taq DNA polymerase (Taq, ratio of IC50 values) it was 0.17. Besides, the half-maximal inhibitory concentration (IC50) in assay [2] worked out at 11 ± 0.6 nM. For the same compound, at Bst DNA polymerase [3] (Bst, C template base (oligoTemplate)), the “Discrimination ratio, cytosine–adenine mismatch over complement thymidine base” value came out at 1100 fold. For the same compound, the “Nucleotide discrimination, IC50 of mismatched versus matched bases” value at Bst DNA polymerase [3] (Bst, mismatched template bases A, C or G) is “greater than two orders of magnitude”.
